Measured values as given in US9693556B2, “Herbicidal pyridazinone derivatives” (SYNGENTA LIMITED, priority 2011, dated 2017).

Tests used:
Type in all cases: in vivo
[1] = system: Alopecurus myosuroides (ALOMY); test: Post-emergence herbicidal glasshouse test on Alopecurus myosuroides; settings: post-emergence; 1000 g/h; evaluated after 13 days
Method: (§1) Seeds of a variety of test species are sown in standard soil in pots (Alopecurus myosuroides (ALOMY), Setaria faberi (SETFA), Echinochloa crus-galli (ECHCG), Solanum nigrum (SOLNI), Amaranthus retoflexus (AMARE), Ipomoea hederacea (IPOHE)). After cultivation for one day (pre-emergence) or after 8 days cultivation (post-emergence) under controlled conditions in a glasshouse (at 24/16° C., day/night; 14 hours light; 65% humidity), the plants are sprayed with an aqueous spray solution derived from the formulation of the technical active ingredient in acetone/water (50:50) solution containing 0.5% Tween 20 (polyoxyethelyene sorbitan monolaurate, CAS RN 9005-64-5). Compounds are applied at 1000 g/h. The test plants are then grown in a glasshouse under controlled conditions in a glasshouse (at 24/16° C., day/night; 14 hours light; 65% humidity) and watered twice daily. After 13 days for pre and post-emergence, the test is evaluated for the percentage herbicidal damage caused to the plant. The biological activities are shown in the following table on a five point scale (5=80-100% damage; 4=60-79% damage; 3=40-59% damage; 2=20-39% damage; 1=0-19% damage).

[2] = system: Ipomoea hederacea (IPOHE); test: Post-emergence herbicidal glasshouse test on Ipomoea hederacea; settings: post-emergence; 1000 g/h; evaluated after 13 days
Method: as §1

Setaria faberi (SETFA) [3] = test: Post-emergence herbicidal glasshouse test on Setaria faberi; settings: post-emergence; 1000 g/h; evaluated after 13 days
Method: as §1

Solanum nigrum (SOLNI) [4] = test: Post-emergence herbicidal glasshouse test on Solanum nigrum; settings: post-emergence; 1000 g/h; evaluated after 13 days
Method: as §1

[5] = system: Echinochloa crus-galli (ECHCG); test: Post-emergence herbicidal glasshouse test on Echinochloa crus-galli; settings: post-emergence; 1000 g/h; evaluated after 13 days
Method: as §1

[6] = system: Amaranthus retoflexus (AMARE); test: Pre-emergence herbicidal glasshouse test on Amaranthus retoflexus; settings: pre-emergence; 1000 g/h; evaluated after 13 days
Method: as §1

Solanum nigrum (SOLNI) [7] = test: Pre-emergence herbicidal glasshouse test on Solanum nigrum; settings: pre-emergence; 1000 g/h; evaluated after 13 days
Method: as §1

Setaria faberi (SETFA) [8] = test: Pre-emergence herbicidal glasshouse test on Setaria faberi; settings: pre-emergence; 1000 g/h; evaluated after 13 days
Method: as §1

[9] = system: Ipomoea hederacea (IPOHE); test: Pre-emergence herbicidal glasshouse test on Ipomoea hederacea; settings: pre-emergence; 1000 g/h; evaluated after 13 days
Method: as §1

[10] = system: Alopecurus myosuroides (ALOMY); test: Pre-emergence herbicidal glasshouse test on Alopecurus myosuroides; settings: pre-emergence; 1000 g/h; evaluated after 13 days
Method: as §1

[11] = system: Echinochloa crus-galli (ECHCG); test: Pre-emergence herbicidal glasshouse test on Echinochloa crus-galli; settings: pre-emergence; 1000 g/h; evaluated after 13 days
Method: as §1

[12] = system: Amaranthus retoflexus (AMARE); test: Post-emergence herbicidal glasshouse test on Amaranthus retoflexus; settings: post-emergence; 1000 g/h; evaluated after 13 days
Method: as §1

| SMILES | POST Application ALOMY herbicidal damage (five point scale) [1] | POST Application IPOHE herbicidal damage (five point scale) [2] | POST Application SETFA herbicidal damage (five point scale) (Setaria faberi (SETFA) [3]) | POST Application SOLNI herbicidal damage (five point scale) (Solanum nigrum (SOLNI) [4]) | POST Application ECHCG herbicidal damage (five point scale) [5] | PRE Application AMARE herbicidal damage (five point scale) [6] | PRE Application SOLNI herbicidal damage (five point scale) (Solanum nigrum (SOLNI) [7]) | PRE Application SETFA herbicidal damage (five point scale) (Setaria faberi (SETFA) [8]) | PRE Application IPOHE herbicidal damage (five point scale) [9] | PRE Application ALOMY herbicidal damage (five point scale) [10] | PRE Application ECHCG herbicidal damage (five point scale) [11] | POST Application AMARE herbicidal damage (five point scale) [12] |
| --- | --- | --- | --- | --- | --- | --- | --- | --- | --- | --- | --- | --- |
| COCn1ncc(-c2ccc(S(C)(=O)=O)c(C3=NOCC3)c2C)c(O)c1=O [Compound 1.001] | 5 (5=80-100% damage) | 5 (5=80-100% damage) | 5 (5=80-100% damage) | 5 (5=80-100% damage) | 5 (5=80-100% damage) | 5 (5=80-100% damage) | 5 (5=80-100% damage) | 5 (5=80-100% damage) | 5 (5=80-100% damage) | 5 (5=80-100% damage) | 5 (5=80-100% damage) | 5 (5=80-100% damage) |
| COc1ccc(Cn2ncc(-c3ccc(S(C)(=O)=O)c(C4=NOCC4)c3C)c(O)c2=O)cc1 [Compound 1.002] | 1 (1=0-19% damage) | 2 (2=20-39% damage) | 1 (1=0-19% damage) | 5 (5=80-100% damage) | 1 (1=0-19% damage) | 1 (1=0-19% damage) | 1 (1=0-19% damage) | 1 (1=0-19% damage) | 1 (1=0-19% damage) | 1 (1=0-19% damage) | 1 (1=0-19% damage) | 3 (3=40-59% damage) |
| CCC(C)n1ncc(-c2ccc(S(C)(=O)=O)c(C3=NOCC3)c2C)c(O)c1=O (centres unmarked) [Compound 1.003] | 2 (2=20-39% damage) | 5 (5=80-100% damage) | 5 (5=80-100% damage) | 5 (5=80-100% damage) | 5 (5=80-100% damage) | 5 (5=80-100% damage) | 4 (4=60-79% damage) | 1 (1=0-19% damage) | 3 (3=40-59% damage) | 1 (1=0-19% damage) | 5 (5=80-100% damage) | 5 (5=80-100% damage) |
| Cc1c(-c2cnn(C(F)F)c(=O)c2O)ccc(S(C)(=O)=O)c1C1=NOCC1 [Compound 1.005] | 4 (4=60-79% damage) | 5 (5=80-100% damage) | 5 (5=80-100% damage) | 5 (5=80-100% damage) | 5 (5=80-100% damage) | 5 (5=80-100% damage) | 3 (3=40-59% damage) | 5 (5=80-100% damage) | 1 (1=0-19% damage) | 1 (1=0-19% damage) | 5 (5=80-100% damage) | 5 (5=80-100% damage) |
| O=c1c(O)c(-c2ccc(C(F)(F)F)cc2C(F)(F)F)cnn1C(F)F [Compound 1.006] | 1 (1=0-19% damage) | 5 (5=80-100% damage) | 1 (1=0-19% damage) | 5 (5=80-100% damage) | 1 (1=0-19% damage) | 5 (5=80-100% damage) | 3 (3=40-59% damage) | 1 (1=0-19% damage) | 3 (3=40-59% damage) | 2 (2=20-39% damage) | 2 (2=20-39% damage) | 5 (5=80-100% damage) |
| Cc1c(-c2cnn(C3CCCC3)c(=O)c2O)ccc(S(C)(=O)=O)c1C1=NOCC1 [Compound 1.007] | 4 (4=60-79% damage) | 4 (4=60-79% damage) | 4 (4=60-79% damage) | 5 (5=80-100% damage) | 5 (5=80-100% damage) | 3 (3=40-59% damage) | 2 (2=20-39% damage) | 4 (4=60-79% damage) | 2 (2=20-39% damage) | 1 (1=0-19% damage) | 4 (4=60-79% damage) | 5 (5=80-100% damage) |
| CCn1ncc(-c2ccc(S(C)(=O)=O)c(C3=NOCC3)c2Cl)c(O)c1=O [Compound 1.009] | 5 (5=80-100% damage) | 5 (5=80-100% damage) | 5 (5=80-100% damage) | 5 (5=80-100% damage) | 5 (5=80-100% damage) | 5 (5=80-100% damage) | 5 (5=80-100% damage) | 5 (5=80-100% damage) | – | 5 (5=80-100% damage) | 5 (5=80-100% damage) | 5 (5=80-100% damage) |
| Cc1ccn(-c2cnn(C)c(=O)c2O)c(=O)c1 [Compound 1.065] | 1 (1=0-19% damage) | 4 (4=60-79% damage) | 5 (5=80-100% damage) | 4 (4=60-79% damage) | 5 (5=80-100% damage) | 5 (5=80-100% damage) | 1 (1=0-19% damage) | 2 (2=20-39% damage) | – | 1 (1=0-19% damage) | 3 (3=40-59% damage) | 5 (5=80-100% damage) |
| COc1ccc(-c2cnn(C)c(=O)c2O)c(C(F)(F)F)c1 [Compound 1.115] | 1 (1=0-19% damage) | 4 (4=60-79% damage) | 1 (1=0-19% damage) | 5 (5=80-100% damage) | 1 (1=0-19% damage) | 4 (4=60-79% damage) | 4 (4=60-79% damage) | 1 (1=0-19% damage) | – | 1 (1=0-19% damage) | 2 (2=20-39% damage) | 2 (2=20-39% damage) |
| C=Cc1ccc(-c2cnn(C)c(=O)c2O)c(S(C)(=O)=O)c1 [Compound 1.139] | 5 (5=80-100% damage) | 5 (5=80-100% damage) | 5 (5=80-100% damage) | 5 (5=80-100% damage) | 5 (5=80-100% damage) | 5 (5=80-100% damage) | – | 1 (1=0-19% damage) | 4 (4=60-79% damage) | 5 (5=80-100% damage) | 5 (5=80-100% damage) | 5 (5=80-100% damage) |
